ChEMBL document CHEMBL1201862, “PubChem BioAssay data set” (2004)
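Five compound concentrations were applied to cells in 96-well plates for 48 hours; endpoints were derived by simple linear interpolation of the resulting dose-response curve. Abbreviation: GI50, concentration required for 50% inhibition of growth.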 The source made the active and inactive calls. Rule as the data show it: active = GI50 up to about 1.1 µM and inactive = higher.

Key:
Assay in all cases: DTP human tumour cell line panel, 48 h
[1] = tested on: NCI/ADR-RES
[2] = tested on: SR
[3] = tested on: K562
[4] = tested on: MDA-N
[5] = tested on: HL-60
[6] = tested on: CAKI-1
[7] = tested on: DU-145
[8] = tested on: TK-10
[9] = tested on: RPMI-8226
[10] = tested on: MDA-MB-435
[11] = tested on: Hs-578T
[12] = tested on: SW-620
[13] = tested on: OVCAR-4
[14] = tested on: UACC-62
[15] = tested on: HOP-92
[16] = tested on: SF-539
[17] = tested on: SF-295
[18] = tested on: SK-OV-3
[19] = tested on: SK-MEL-2
[20] = tested on: NCI-H460

Row | SMILES | GI50 [1] | GI50 [2] | GI50 [3] | GI50 [4] | GI50 [5] | GI50 [6] | GI50 [7] | GI50 [8] | GI50 [9] | GI50 [10] | GI50 [11] | GI50 [12] | GI50 [13] | GI50 [14] | GI50 [15] | GI50 [16] | GI50 [17] | GI50 [18] | GI50 [19] | GI50 [20]
1 | CCC(=O)Oc1c2ccsc2c(OC(=O)CC)c2ccsc12 | 0.279 µM (active) | 0.297 µM (active) | 0.461 µM (active) | 0.0555 µM (active) | 0.201 µM (active) | 2.42 µM (inactive) | 0.262 µM (active) | 2.25 µM (inactive) | 0.452 µM (active) | 0.0604 µM (active) | 0.372 µM (active) | 0.471 µM (active) | 0.948 µM (active) | 0.217 µM (active) | 1.42 µM (inactive) | 0.208 µM (active) | 0.254 µM (active) | 6.62 µM (inactive) | 0.344 µM (active) | 1.89 µM (inactive)
2 | C1=N\c2ccc(cc2)/N=C\c2ccc(cc2)OCc2cccc(n2)COc2ccc/1cc2 | > 100 µM (inactive) | > 100 µM (inactive) | > 100 µM (inactive) | > 100 µM (inactive) | > 100 µM (inactive) | > 100 µM (inactive) | > 100 µM (inactive) |  | > 100 µM (inactive) | > 100 µM (inactive) | > 100 µM (inactive) | > 100 µM (inactive) | > 100 µM (inactive) | > 100 µM (inactive) | > 100 µM (inactive) | > 100 µM (inactive) | > 100 µM (inactive) | > 100 µM (inactive) | > 100 µM (inactive) | > 100 µM (inactive)
3 | CCc1c[n+]([O-])c(C)cc1[N+](=O)[O-] | > 100 µM (inactive) | 33.6 µM (inactive) | 48.6 µM (inactive) | 44.2 µM (inactive) | > 100 µM (inactive) | 40.4 µM (inactive) | 28 µM (inactive) | 35.2 µM (inactive) | 33.5 µM (inactive) | 57.9 µM (inactive) | > 100 µM (inactive) | 33.3 µM (inactive) |  | 49.9 µM (inactive) | 35.8 µM (inactive) | > 100 µM (inactive) | > 100 µM (inactive) | > 100 µM (inactive) | 21 µM (inactive) | 20.7 µM (inactive)
4 | C=C1CC2(CCOc3ccc(Cl)cc32)OC1=O (configuration not stated) | 6.47 µM (inactive) | 2.37 µM (inactive) | 2.55 µM (inactive) | 3.53 µM (inactive) | 1.93 µM (inactive) | 2.33 µM (inactive) | 12.7 µM (inactive) | 5.77 µM (inactive) | 0.667 µM (active) | 2.82 µM (inactive) | 0.979 µM (active) | 1.26 µM (inactive) | 1.91 µM (inactive) | 13.1 µM (inactive) | 3.48 µM (inactive) | 0.284 µM (active) | 7.24 µM (inactive) | 13.1 µM (inactive) | 1.86 µM (inactive) | 3.61 µM (inactive)
5 | Oc1ccc(SCc2ccc(NCc3ccccc3)cc2)cc1 | 30.3 µM (inactive) | 13.1 µM (inactive) | 31.5 µM (inactive) | 24.5 µM (inactive) | 14.6 µM (inactive) | 19.6 µM (inactive) | 32 µM (inactive) | 50.4 µM (inactive) |  | 18.2 µM (inactive) | 53 µM (inactive) | 36.4 µM (inactive) | 18.1 µM (inactive) | 23.4 µM (inactive) | 43.4 µM (inactive) | 36.6 µM (inactive) | 22.3 µM (inactive) | 62.8 µM (inactive) | 21.7 µM (inactive) | 31 µM (inactive)
6 | CCOC(=O)C(Cc1cccn1C(=O)OC(C)(C)C)[N+](=O)[O-] (configuration not stated) | 44.7 µM (inactive) | 19 µM (inactive) | 24.7 µM (inactive) | 26.7 µM (inactive) | 21.1 µM (inactive) | 24.7 µM (inactive) | 26.9 µM (inactive) | 22.3 µM (inactive) | 20.5 µM (inactive) | 26.6 µM (inactive) | 29.9 µM (inactive) | 23.8 µM (inactive) | 28.6 µM (inactive) | 21.5 µM (inactive) | 28.2 µM (inactive) | 22.1 µM (inactive) | 30.6 µM (inactive) | > 100 µM (inactive) | 20.1 µM (inactive) | 24.3 µM (inactive)
7 | Cn1c(=O)c2sc3cc4c(cc3c2c2ccccc21)sc1c(=O)n(C)c2ccccc2c14 | > 100 µM (inactive) | 25.8 µM (inactive) | > 10 µM (inactive) | > 100 µM (inactive) | > 100 µM (inactive) | > 100 µM (inactive) | > 100 µM (inactive) | > 100 µM (inactive) | > 100 µM (inactive) | > 100 µM (inactive) | 43.4 µM (inactive) | > 100 µM (inactive) | > 100 µM (inactive) | > 100 µM (inactive) | 23.9 µM (inactive) | 76 µM (inactive) | 15.2 µM (inactive) | > 100 µM (inactive) | > 100 µM (inactive) | 52.4 µM (inactive)
